Laboratory results from patent publication US20040106545A1, “Compounds and methods for modulating cell adhesion” (priority 1996, published 2004).
Values joined by “and” are separate entries in the source; they are usually repeats but may differ in a detail not shown here. Equal entries are not always repeated.

Legend:
[1] = system: human skin; assay: Human skin permeability, Franz Cell apparatus
Procedure: Another cell adhesion assay involves evaluating the effect of a modulating agent on permeability of adherent epithelial and/or endothelial cell layers. For example, the effect on permeability of human skin may be evaluated. Such skin may be derived from a natural source or may be synthetic. Human abdominal skin for use in such assays may generally be obtained from humans at autopsy within 24 hours of death. Briefly, a cyclic peptide and a test marker (e.g., the fluorescent markers Oregon Green™ and Rhodamine Green™ Dextran) may be dissolved in a sterile buffer, and the ability of the marker to penetrate through the skin and into a receptor fluid may be measured using a Franz Cell apparatus (Franz, Curr. Prob. Dermatol. 7:58-68, 1978; Franz, J. Invest. Dermatol. 64:190-195, 1975). In general, a modulating agent that enhances the permeability of human skin results in a statistically significant increase in the amount of marker in the receptor compartment after 6-48 hours in the presence of 500 μg/mL modulating agent. This assay evaluates the effect of a modulating agent on E-cadherin mediated cell adhesion.
Abdominal skin from humans at autopsy within 24 hours of death was used in these assays. The effect of N—Ac-CHAVC-NH2 (SEQ ID NO:10) and N—Ac-CHGVC-NH2 (SEQ ID NO:11), used at a concentration of 500 μg/ml or 2.5 mg/ml, on the penetration of two fluorescent markers, Oregon Green 488 (charge −1, MW 386 daltons) and Rhodamine Green 3000 Dextran (no charge, MW 3000 daltons) through human skin was then evaluated utilizing a Franz Cell apparatus (Franz, Curr. Prob. Dermatol. 7:58-68, 1978; Franz, J. Invest. Dermatol. 64:190-195, 1975). The peptides and markers were dissolved in sterile phosphate buffer, pH 7.2, and phosphate buffer was used as the receptor fluid. 150 μl of solution containing 0.2 mg Oregon Green and 1.0 mg Rhodamine Green was used to evaluate 500 μg/ml peptide; 200 μl of solution containing 0.05 mg Oregon Green and 1.250 mg Rhodamine Green was used to evaluate 2.5 mg/ml peptide. The solution was placed on top of the epidermal side of the skin, and the penetration of the markers through the skin was assessed using a fluorescent spectrophotometric method (in a Perkin Elmer 650-105 Fluorescence Spectrophotometer, and comparing the reading to a standard curve) at 6, 12, 24, 36, and 48 hours after the start of the experiment. The fluorescent units were converted to a concentration unit of microgram/5 ml (volume of the receiver compartment) using a standard curve and regression analysis equations. The curve was linear for the concentrations tested for both markers (r^2=1 for OrG and 0.997 for RhG). For each peptide and marker combination, the experiment was performed in triplicate.

[2] = Cytotoxicity, MTT assay, WI-38; assay type: cell-based; conditions: human, WI-38 cells (human fibroblast cell line), read-out: WI-38 Cytotox (IC50)
Procedure: N—Ac-CHAVC-NH2 (SEQ ID NO:10) and the control peptide N—Ac-CHGVC-NH2 (SEQ ID NO:11) were evaluated for possible cytotoxic effects on human microvascular endothelial (HMVEC; Clonetics), human umbilical vein endothelial (HUVEC; ATCC #CRL-1730), IAFp2 (human fibroblast cell line; Institute Armand-Frapier, Montreal, Quebec), WI-38 (human fibroblast cell line; ATCC #CCL-75), MDA-MB231 (human breast cancer cell line; ATCC #HTB-26), and PC-3 (human prostate cancer cell line; ATCC #CRL-1435) cells utilizing the MTT assay (Plumb et al., Cancer Res. 49:4435-4440, 1989). Neither of the peptides was cytotoxic at concentrations up to and including 100 μM. Similarly, neither of the peptides was capable of inhibiting the proliferation of the above cell lines at concentrations up to 100 μM, as judged by ^3H-thymidine incorporation assays.

[3] = 500 μg/ml Peptide, t = 6 hours, Mean
[4] = 500 μg/ml Peptide, t = 6 hours, single replicates, listed as Sample#3
[5] = 500 μg/ml Peptide, t = 12 hours, Mean
[6] = 500 μg/ml Peptide, t = 12 hours, single replicates, listed as Sample#3
[7] = 500 μg/ml Peptide, t = 24 hours, Mean
[8] = 500 μg/ml Peptide, t = 24 hours, single replicates, listed as Sample#3
[9] = 500 μg/ml Peptide, t = 36 hours, Mean
[10] = 500 μg/ml Peptide, t = 36 hours, single replicates, listed as Sample#3
[11] = 500 μg/ml Peptide, t = 48 hours, Mean
[12] = 500 μg/ml Peptide, t = 48 hours, single replicates, listed as Sample#3
[13] = 2.5 mg/ml Peptide, t = 6 hours, Mean
[14] = 2.5 mg/ml Peptide, t = 6 hours, single replicates, listed as Sample#3
[15] = 2.5 mg/ml Peptide, t = 12 hours, Mean
[16] = 2.5 mg/ml Peptide, t = 12 hours, single replicates, listed as Sample#3
[17] = 2.5 mg/ml Peptide, t = 24 hours, Mean
[18] = 2.5 mg/ml Peptide, t = 24 hours, single replicates, listed as Sample#3
[19] = 2.5 mg/ml Peptide, t = 36 hours, Mean
[20] = 2.5 mg/ml Peptide, t = 36 hours, single replicates, listed as Sample#3
[21] = 2.5 mg/ml Peptide, t = 48 hours, Mean
[22] = 2.5 mg/ml Peptide, t = 48 hours, single replicates, listed as Sample#3

In the case of CC(=O)N[C@H]1CSSC[C@@H](C(N)=O)NC(=O)[C@H](C(C)C)NC(=O)CNC(=O)[C@H](Cc2c[nH]cn2)NC1=O [N—Ac—CHGVC—NH2, reference compound], the “Percutaneous absorption concentration for Dextran Rhodamine Green 3000” value [1, 3] is reported as 0.23 mg/5ml, the “Percutaneous absorption concentration for Oregon Green 488” value [1, 3] is reported as 0.055 mg/5ml and the “Percutaneous absorption concentration for Dextran Rhodamine Green 3000” value [1, 4] is reported as 0.2 mg/5ml (2×) and 0.3 mg/5ml. The “Percutaneous absorption concentration for Oregon Green 488” value [1, 4] was 0.098 mg/5ml and 0.022 mg/5ml and 0.045 mg/5ml, the “Percutaneous absorption concentration for Dextran Rhodamine Green 3000” value [1, 5] was 0.67 mg/5ml and the “Percutaneous absorption concentration for Oregon Green 488” value [1, 5] was 0.132 mg/5ml. For the same compound, the “Percutaneous absorption concentration for Dextran Rhodamine Green 3000” value [1, 6] was 0.6 mg/5ml and 1.0 mg/5ml and 0.4 mg/5ml, the “Percutaneous absorption concentration for Oregon Green 488” value [1, 6] was 0.200 mg/5ml and 0.107 mg/5ml and 0.088 mg/5ml and the “Percutaneous absorption concentration for Dextran Rhodamine Green 3000” value [1, 7] was 1.07 mg/5ml. The “Percutaneous absorption concentration for Oregon Green 488” value [1, 7] was 0.698 mg/5ml, the “Percutaneous absorption concentration for Dextran Rhodamine Green 3000” value [1, 8] was 1.0 mg/5ml and 1.4 mg/5ml and 0.8 mg/5ml and the “Percutaneous absorption concentration for Oregon Green 488” value [1, 8] was 0.709 mg/5ml and 0.864 mg/5ml and 0.522 mg/5ml. For the same compound, the “Percutaneous absorption concentration for Dextran Rhodamine Green 3000” value [1, 9] was 1.2 mg/5ml, the “Percutaneous absorption concentration for Oregon Green 488” value [1, 9] was 0.802 mg/5ml and the “Percutaneous absorption concentration for Dextran Rhodamine Green 3000” value [1, 10] was 1.0 mg/5ml (2×) and 1.6 mg/5ml. For the same compound, the “Percutaneous absorption concentration for Oregon Green 488” value [1, 10] was 0.769 mg/5ml and 0.923 mg/5ml and 0.714 mg/5ml, the “Percutaneous absorption concentration for Dextran Rhodamine Green 3000” value [1, 11] was 2.99 mg/5ml and the “Percutaneous absorption concentration for Oregon Green 488” value [1, 11] was 0.902 mg/5ml. The “Percutaneous absorption concentration for Dextran Rhodamine Green 3000” value [1, 12] was 1.8 mg/5ml (2×) and 5.370 mg/5ml, the “Percutaneous absorption concentration for Oregon Green 488” value [1, 12] was 0.923 mg/5ml and 1.021 mg/5ml and 0.764 mg/5ml and the “Percutaneous absorption concentration for Dextran Rhodamine Green 3000” value [1, 13] was 1.93 mg/5ml. The “Percutaneous absorption concentration for Oregon Green 488” value [1, 13] was 0.04 mg/5ml, the “Percutaneous absorption concentration for Dextran Rhodamine Green 3000” value [1, 14] was 1.8 mg/5ml and 0.2 mg/5ml and 3.8 mg/5ml and the “Percutaneous absorption concentration for Oregon Green 488” value [1, 14] was 0.04 mg/5ml and 0.01 mg/5ml and 0.06 mg/5ml. For the same compound, the “Percutaneous absorption concentration for Dextran Rhodamine Green 3000” value [1, 15] was 8.97 mg/5ml, the “Percutaneous absorption concentration for Oregon Green 488” value [1, 15] was 0.07 mg/5ml and the “Percutaneous absorption concentration for Dextran Rhodamine Green 3000” value [1, 16] was 17.02 mg/5ml and 2.0 mg/5ml and 7.89 mg/5ml. The “Percutaneous absorption concentration for Oregon Green 488” value [1, 16] was 0.11 mg/5ml and 0.04 mg/5ml and 0.08 mg/5ml, the “Percutaneous absorption concentration for Dextran Rhodamine Green 3000” value [1, 17] was 15.64 mg/5ml and the “Percutaneous absorption concentration for Oregon Green 488” value [1, 17] was 0.16 mg/5ml. The “Percutaneous absorption concentration for Dextran Rhodamine Green 3000” value [1, 18] was 27.47 mg/5ml and 5.56 mg/5ml and 13.9 mg/5ml, the “Percutaneous absorption concentration for Oregon Green 488” value [1, 18] was 0.12 mg/5ml and 0.11 mg/5ml and 0.26 mg/5ml and the “Percutaneous absorption concentration for Dextran Rhodamine Green 3000” value [1, 19] was 19.73 mg/5ml. The “Percutaneous absorption concentration for Oregon Green 488” value [1, 19] was 0.25 mg/5ml, the “Percutaneous absorption concentration for Dextran Rhodamine Green 3000” value [1, 20] was 33.06 mg/5ml and 5.79 mg/5ml and 20.35 mg/5ml and the “Percutaneous absorption concentration for Oregon Green 488” value [1, 20] was 0.23 mg/5ml and 0.22 mg/5ml and 0.29 mg/5ml. For the same compound, the “Percutaneous absorption concentration for Dextran Rhodamine Green 3000” value [1, 21] was 25.53 mg/5ml, the “Percutaneous absorption concentration for Oregon Green 488” value [1, 21] was 0.36 mg/5ml and the “Percutaneous absorption concentration for Dextran Rhodamine Green 3000” value [1, 22] was 40.86 mg/5ml and 8.25 mg/5ml and 27.48 mg/5ml. The “Percutaneous absorption concentration for Oregon Green 488” value [1, 22] was 0.36 mg/5ml and 0.26 mg/5ml and 0.46 mg/5ml and the IC50 [2] was over 100 µM.
